Literature values, collected in publication PMC8764166, “Phenolic-Rich Plant Extracts With Antimicrobial Activity: An Alternative to Food Preservatives and Biocides?” (Frontiers in Microbiology, 2022).
Converted amounts (≈) assume the structure as drawn. Read-outs that look alike come from different tables or passages of the source.

Experiments:
Bacillus cereus = conditions: for MIC against Bacillus cereus: ref Skroza et al., 2019
Escherichia coli = conditions: for MIC against Escherichia coli: E. coli O157:H7 ATCC 43890, 2.5 10^6 cfu·ml^−1, Mueller Hinton broth, ref Pacheco-Ordaz et al., 2017
[1] = system: biofilms with undesirable food spoiling or foodborne pathogenic microorganisms; design: method as in the references listed per substance; conditions: the references listed per substance
Enterococcus faecalis = conditions: for MIC against Enterococcus faecalis: ref Adamczak et al., 2020
Pseudomonas aeruginosa = conditions: 2020
Salmonella Infantis = system: Salmonella Infantis; design: method as in Skroza et al., 2019; conditions: ref Skroza et al., 2019
L. monocytogenes = system: L. monocytogenes; design: method as in Pernin et al., 2019; conditions: ref Pernin et al., 2019
[2] = system: Salmonella enterica serovar Typhimurium; conditions: ref Alvarado-Martinez et al., 2020
[3] = ŽMJ 129 (clinical isolate), 10^5–10^6 cfu·ml^−1, Mueller Hinton broth, 24 h 37°C, ref Skroza et al., 2019

SMILES	MIC against Enterococcus faecalis (Enterococcus faecalis)	MIC against E. coli (Escherichia coli; ref Adamczak et al., 2020)	MIC against P. aeruginosa (Pseudomonas aeruginosa; ref Adamczak et al.)	MIC against Bacillus cereus (Bacillus cereus)	MIC against S. aureus (Staphylococcus aureus; ref Skroza et al., 2019)	also measured
COC1=CC(=O)C=C(OC)C1=O [2,6-dimethoxy-1,4-benzoquinone]	–	–	–	–	–	MIC against B. cereus (Bacillus cereus; ref Kim et al., 2010): 64 µg/mL (≈ 381 µM); MIC against S. typhimurium (Salmonella typhimurium; ref Kim et al., 2010): 32 µg/mL (≈ 190 µM); MIC against E. coli (Escherichia coli; ref Kim et al., 2010): 32 µg/mL (≈ 190 µM); MIC against S. aureus (Staphylococcus aureus; ref Kim et al., 2010): 8 µg/mL (≈ 47.6 µM)
Cc1ccc(O)c(O)c1 [4-methylcatechol]	–	–	–	–	–	activity against biofilms [1]: inhibit formation or to eradicate biofilms
CC(C)(C)c1ccc(O)c(O)c1 [4-tert-butylcatechol]	–	–	–	–	–	activity against biofilms [1]: inhibit formation or to eradicate biofilms
O=c1cc(-c2ccc(O)cc2)oc2cc(O)cc(O)c12 [Apigenin]	1000 µg/mL (≈ 3700 µM)	500 µg/mL (≈ 1850 µM)	500 µg/mL (≈ 1850 µM)	–	–	MIC against S. aureus (Staphylococcus aureus; ref Adamczak et al., 2020): 500 to 1000 µg/mL
Oc1cc(O)c2c(c1)O[C@H](c1ccc(O)c(O)c1)[C@H](O)C2 [Epicatechin]	–	–	–	360 µg/mL (≈ 1240 µM)	720 µg/mL (≈ 2480 µM)	MIC against E. coli (Escherichia coli; [3]): 720 µg/mL (≈ 2480 µM); MIC against Salmonella Infantis (Salmonella Infantis): 720 µg/mL (≈ 2480 µM)
O=c1cc(-c2ccccc2)oc2ccccc12 [Flavone]	E. faecalis 0.5 g·L^−1 E. coli 0.5 g·L^−1 P. aeruginosa 0.5 g·L^−1	E. faecalis 0.5 g·L^−1 E. coli 0.5 g·L^−1 P. aeruginosa 0.5 g·L^−1	E. faecalis 0.5 g·L^−1 E. coli 0.5 g·L^−1 P. aeruginosa 0.5 g·L^−1	–	–	–
O=c1c(O)c(-c2ccc(O)cc2)oc2cc(O)cc(O)c12 [Kaempferol]	–	E. coli 0.5 g·L^−1	–	90 µg/mL (≈ 314 µM)	90 µg/mL (≈ 314 µM)	MIC against E. faecalis (Enterococcus faecalis; ref del Valle et al., 2016): E. faecalis 0.1 g·L^−1; MIC against E. coli (Escherichia coli; [3]): 360 µg/mL (≈ 1260 µM); MIC against Salmonella Infantis (Salmonella Infantis): 360 µg/mL (≈ 1260 µM)
O=c1cc(-c2ccc(O)c(O)c2)oc2cc(O)cc(O)c12 [Luteolin]	1000 µg/mL (≈ 3490 µM)	–	500 µg/mL (≈ 1750 µM)	90 µg/mL (≈ 314 µM)	45 µg/mL (≈ 157 µM)	MIC against S. aureus (Staphylococcus aureus; ref Adamczak et al., 2020): 500 µg/mL (≈ 1750 µM)
C[C@@H]1O[C@@H](O[C@H]2[C@H](Oc3cc(O)c4c(c3)O[C@H](c3ccc(O)cc3)CC4=O)O[C@H](CO)[C@@H](O)[C@@H]2O)[C@H](O)[C@H](O)[C@H]1O [Naringin]	1000 µg/mL (≈ 1720 µM)	500 µg/mL (≈ 861 µM)	500 µg/mL (≈ 861 µM)	–	–	–
O=c1cc(-c2ccc(O)c(O)c2)oc2c([C@@H]3O[C@H](CO)[C@@H](O)[C@H](O)[C@H]3O)c(O)cc(O)c12 [Orientin]	1000 µg/mL (≈ 2230 µM)	500 µg/mL (≈ 1120 µM)	500 µg/mL (≈ 1120 µM)	–	–	MIC against S. aureus (Staphylococcus aureus; ref Adamczak et al., 2020): 500 µg/mL (≈ 1120 µM)
CC(C)=CCc1c(O)ccc2c1O[C@H]1c3ccc(O)cc3OC[C@@H]21 [Phaseollidin]	–	–	–	–	–	MIC against B. cereus (Bacillus cereus; ref Sadgrove et al., 2020): 10 µg/mL (≈ 30.8 µM); MIC against E. coli (Escherichia coli; ref Sadgrove et al., 2020): 20 µg/mL (≈ 61.7 µM); MIC against S. aureus (Staphylococcus aureus; ref Sadgrove et al., 2020): 10 µg/mL (≈ 30.8 µM); MIC against P. aeruginosa (Pseudomonas aeruginosa; ref Sadgrove et al.): 20 µg/mL (≈ 61.7 µM)
O=C(O)c1ccc(O)c(O)c1 [Proto-catechuic acid]	–	–	–	190 µg/mL (≈ 1230 µM)	380 µg/mL (≈ 2470 µM)	MIC against Escherichia coli (Escherichia coli; 24 h 37°C): E. coli, 3.1 g·L^−1; MIC against E. coli (Escherichia coli; [3]): 380 µg/mL (≈ 2470 µM); mechanism of action against L. monocytogenes (L. monocytogenes): penetration or accumulation in the bacterial membrane of undissociated form; cell morphology [2]: morphological defects at the polar ends of bacteria; expression of virulence genes (SPI-1) [2]: downregulation of key regulatory genes; membrane permeabilization [2]: membrane permeabilization; MIC against Salmonella Infantis (Salmonella Infantis): 380 µg/mL (≈ 2470 µM)
O=C(/C=C/c1ccc(O)c(O)c1)O[C@H](Cc1ccc(O)c(O)c1)C(=O)O [Rosmarinic acid]	1000 µg/mL (≈ 2780 µM)	500 µg/mL (≈ 1390 µM)	500 to 1000 µg/mL	S. aureus 0.45 g·L^−1 B. cereus 0.45 g·L^−1 E. coli 0.45 g·L^−1 S. Infantis 0.45 g·L^−1	S. aureus 0.45 g·L^−1 B. cereus 0.45 g·L^−1 E. coli 0.45 g·L^−1 S. Infantis 0.45 g·L^−1	MIC against E. coli (Escherichia coli; [3]): S. aureus 0.45 g·L^−1 B. cereus 0.45 g·L^−1 E. coli 0.45 g·L^−1 S. Infantis 0.45 g·L^−1; MIC against Salmonella Infantis (Salmonella Infantis): S. aureus 0.45 g·L^−1 B. cereus 0.45 g·L^−1 E. coli 0.45 g·L^−1 S. Infantis 0.45 g·L^−1
O=C(O)c1ccccc1O [Salicylic acid]	500 µg/mL (≈ 3620 µM)	250 to 500 µg/mL	500 µg/mL (≈ 3620 µM)	170 µg/mL (≈ 1230 µM)	350 µg/mL (≈ 2530 µM)	MIC against E. coli (Escherichia coli; [3]): 170 µg/mL (≈ 1230 µM); MIC against S. aureus (Staphylococcus aureus; ref Adamczak et al., 2020): 250 to 500 µg/mL; MIC against Salmonella Infantis (Salmonella Infantis): 170 µg/mL (≈ 1230 µM)
COc1cc(C(=O)O)cc(OC)c1O [Syringic acid]	–	–	–	250 µg/mL (≈ 1260 µM)	500 µg/mL (≈ 2520 µM)	MIC against S. typhimurium (Salmonella typhimurium; ref Phadungkit and Luanratana, 2006): S. typhimurium 0.0625 g·L^−1; MIC against E. coli (Escherichia coli; [3]): 250 µg/mL (≈ 1260 µM); MIC against Salmonella Infantis (Salmonella Infantis): 250 µg/mL (≈ 1260 µM)
COc1cc(C(=O)O)ccc1O [Vanillic acid]	–	–	–	100 µg/mL (≈ 595 µM)	420 µg/mL (≈ 2500 µM)	MIC against Salmonella typhimurium (Salmonella typhimurium; ref Pacheco-Ordaz et al., 2017): 2500 µg/mL (≈ 14900 µM); MIC against Escherichia coli (Escherichia coli; 24 h 37°C): 3400 µg/mL (≈ 20200 µM); MIC against E. coli (Escherichia coli; [3]): 100 µg/mL (≈ 595 µM); mechanism of action against L. monocytogenes (L. monocytogenes): penetration or accumulation in the bacterial membrane of undissociated form; cell morphology [2]: observation of mid-division cells; membrane permeabilization [2]: membrane permeabilization; activity against biofilms [1]: inhibit formation or to eradicate biofilms; MIC against Salmonella Infantis (Salmonella Infantis): 210 µg/mL (≈ 1250 µM)
O=c1cc(-c2ccc(O)cc2)oc2c([C@@H]3O[C@H](CO)[C@@H](O)[C@H](O)[C@H]3O)c(O)cc(O)c12 [Vitexin]	1000 µg/mL (≈ 2310 µM)	500 µg/mL (≈ 1160 µM)	500 µg/mL (≈ 1160 µM)	–	–	–
O=C(O)/C=C/c1ccccc1 [cinnamic acid]	–	–	–	–	–	activity against biofilms [1]: inhibit formation or to eradicate biofilms
O=c1cc(-c2ccc(O)c(O)c2)oc2cc(O)c([C@@H]3O[C@H](CO)[C@@H](O)[C@H](O)[C@H]3O)c(O)c12 [isoorientin]	1000 µg/mL (≈ 2230 µM)	500 µg/mL (≈ 1120 µM)	500 µg/mL (≈ 1120 µM)	–	–	MIC against S. aureus (Staphylococcus aureus; ref Adamczak et al., 2020): 500 µg/mL (≈ 1120 µM)
O=c1cc(-c2ccc(O)cc2)oc2cc(O)c([C@@H]3O[C@H](CO)[C@@H](O)[C@H](O)[C@H]3O)c(O)c12 [isovitexin]	1000 µg/mL (≈ 2310 µM)	500 µg/mL (≈ 1160 µM)	500 µg/mL (≈ 1160 µM)	–	–	–
O=c1c(O)c(-c2ccc(O)cc2O)oc2cc(O)cc(O)c12 [morin]	–	–	–	–	–	activity against biofilms [1]: inhibit formation or to eradicate biofilms
O=c1c(O)c(-c2cc(O)c(O)c(O)c2)oc2cc(O)cc(O)c12 [myricetin]	–	–	–	–	–	activity against biofilms [1]: inhibit formation or to eradicate biofilms
O=C(O)c1ccc(O)cc1 [p-hydroxybenzoic acid]	–	–	–	–	–	mechanism of action against L. monocytogenes (L. monocytogenes): penetration or accumulation in the bacterial membrane of undissociated form
Oc1cccc(O)c1O [pyrogallol]	–	–	–	–	–	activity against biofilms [1]: inhibit formation or to eradicate biofilms
C[C@@H]1O[C@@H](O[C@@H]2[C@@H](O)[C@H](O)[C@@H](CO)O[C@H]2c2c(O)cc(O)c3c(=O)cc(-c4ccc(O)cc4)oc23)[C@H](O)[C@H](O)[C@H]1O [vitexin 2"-o-rhamnoside]	1000 µg/mL (≈ 1730 µM)	500 µg/mL (≈ 864 µM)	500 µg/mL (≈ 864 µM)	–	–	–
